Source: ChEMBL document CHEMBL1156298, “New inhibitors for expression of IgE receptor on human mast cell” (Bioorg Med Chem Lett, 2010)
Calls of active or inactive are those of the source. The rule behind the calls is not given here.

Columns and labels:
[1] = tested on: HMC1; assay: Inhibition of FCepsilonRI expression in human HMC1 cells at 100 uM after 72 hrs by flow cytometry; type: functional, cell-based
[2] = Cytotoxicity against human HMC1 cells assessed induction of cell death at 50 uM; type: cell-based; settings: hmc1, 50 µM
[3] = tested on: HMC1; assay: Inhibition of FCepsilonRI expression in human HMC1 cells at 50 to 100 uM after 72 hrs by flow cytometry; type: functional, cell-based
[4] = Cytotoxicity against human HMC1 cells assessed induction of morphological changes at 50 uM; settings: hmc1, 50 µM
[5] = tested on: HMC1; assay: Inhibition of FCepsilonRI alpha subunit mRNA expression in human HMC1 cells at 50 uM after 36 hrs by RT-PCR analysis; type: functional, cell-based
[6] = tested on: HMC1; assay: Inhibition of FCepsilonRI gamma subunit mRNA expression in human HMC1 cells at 50 uM after 36 hrs by RT-PCR analysis; type: functional, cell-based
[7] = tested on: HMC1; assay: Inhibition of FCepsilonRI beta subunit mRNA expression in human HMC1 cells at 50 uM after 36 hrs by RT-PCR analysis; type: functional, cell-based

Compound: Oc1cc(O)c2c(c1)O[C@H](c1ccc(O)c(O)c1)[C@H](O)C2
- inhibition [1]: Active

Compound: O=c1cc(-c2ccc(O)cc2)oc2cc(O)c(O)c(O)c12 [SCUTELLAREIN]
- Activity [2]: Toxic

Compound: COc1c(O)cc([C@H]2Oc3cc(O)cc(O)c3C[C@H]2OC(=O)c2cc(O)c(O)c(O)c2)cc1O
- inhibition [1]: inactive
- inhibition [3]: inactive

Compound: O=c1cc(-c2ccc(O)c(O)c2)oc2cc(O)cc(O)c12 [LUTEOLIN]
- Activity [4]: Toxic

Compound: O=c1cc(-c2ccc(O)cc2)oc2cc(O)cc(O)c12 [APIGENIN]
- Activity [4]: Toxic

Compound: COc1cc(C(=O)O[C@@H]2Cc3c(O)cc(O)cc3O[C@@H]2c2cc(O)c(O)c(O)c2)cc(O)c1O
- inhibition [1]: inactive
- inhibition [3]: inactive

Compound: O=C(O[C@@H]1Cc2c(O)cc(O)cc2O[C@H]1c1cc(O)c(O)c(O)c1)c1cc(O)c(O)c(O)c1
- inhibition [1]: Active

Compound: O=C(O[C@@H]1Cc2c(O)cc(O)cc2O[C@@H]1c1cc(O)c(O)c(O)c1)c1cc(O)c(O)c(O)c1
- inhibition [5]: inactive
- inhibition [6]: Active
- inhibition [7]: inactive

Compound: COc1cc(-c2[o+]c3cc(O)cc(O)c3cc2O)cc(OC)c1O [MALVIDIN]
- Activity [4]: Toxic

Compound: O=C(O[C@@H]1Cc2c(O)cc(O)cc2O[C@@H]1c1ccc(O)c(O)c1)c1cc(O)c(O)c(O)c1
- inhibition [1]: Active

Compound: O=c1cc(-c2ccccc2)oc2cc(O)c(O)c(O)c12 [BAICALEIN]
- Activity [4]: Toxic

Compound: COc1cc([C@H]2Oc3cc(O)cc(O)c3C[C@H]2OC(=O)c2cc(O)c(O)c(O)c2)cc(O)c1O
- inhibition [1]: inactive
- inhibition [3]: inactive

Compound: COc1c(O)cc(O)c2c(=O)cc(-c3ccccc3)oc12 [WOGONIN]
- Activity [4]: Toxic

Compound: O=c1cc(-c2cc(O)c(O)c(O)c2)oc2cc(O)cc(O)c12
- inhibition [3]: Active

Compound: COc1c(O)cc(C(=O)O[C@@H]2Cc3c(O)cc(O)cc3O[C@@H]2c2cc(O)c(O)c(O)c2)cc1O
- inhibition [1]: inactive
- inhibition [3]: inactive

Compound: Oc1cc(O)c2cc(O)c(-c3ccc(O)c(O)c3)[o+]c2c1 [CYANIDIN]
- Activity [4]: Toxic

Compound: O=c1cc(-c2ccc(O)c(O)c2)oc2c([C@@H]3O[C@H](CO)[C@@H](O)[C@H](O)[C@H]3O)c(O)cc(O)c12 [ORIENTIN]
- Activity [4]: Toxic

Compound: O=c1cc(-c2ccccc2)oc2c(O)c(O)cc(O)c12 [NORWOGONIN]
- Activity [2]: Toxic

Compound: Oc1cc(O)c2cc(O)c(-c3cc(O)c(O)c(O)c3)[o+]c2c1
- inhibition [3]: Active
